Data: paper PMC11229374, “Unlocking the potential of protein-derived peptides to target G-quadruplex DNA: from recognition to anticancer activity” (Nucleic Acids Research, 2024)
*: point of attachment. FITC = O=C1OC2(c3ccc(O)cc3Oc3cc(O)ccc32)c2ccc(NC(=S)*)cc21; AEEA = NCCOCCOCC(=O)O

Experiments:
γH2AX in U2OS cells = experiment: Immunofluorescence of γH2AX (DNA damage); format: cell-based; settings: 10 μM peptide, 24 h
Description: To evaluate telomere-localized DNA damage, FISH assay with a telomeric probe was combined to IF staining of γH2AX. Cells were seeded on glass coverslips in a 6-well plate at a density of 1 × 10^5 cells/well. After 24 h of treatment with indicated peptides, cells were washed three times with PBS 1×, fixed with formaldehyde 4% in PBS for 2 min at RT and washed three times with PBS 1×. The fixation protocol was repeated twice and then the samples were dehydrated by sequential exposure to 70%, 90% and 100% EtOH and DNA was denatured by incubation at 80°C for 3 min in the presence of the telomere probe solution (10 mM of Tris pH 7.2, MgCl2 buffer, 70% of deionized formamide, […] of TelC-Cy3 telomeric probe (Panagene, Daejeon, Korea), 0.25% of blocking reagent). […] For quantitative analysis of γH2AX positive cells, at least 200 cells/condition were scored in triplicate. For Telomere-Induced Foci (TIFs) analysis, at least 25 γH2AX-positive cells on a single plane were scored. […] Fluorescence signals were recorded with Zeiss Laser Scanning Microscope 510 Meta (63× magnification) (Zeiss, Germany) and the experiment was analyzed with Adobe Photoshop CC 2019.

U2OS cells = experiment: Viability assay (crystal violet), U2OS; format: cell-based; settings: 72 h treatment
Description: U2OS, HCT116 and MDA-MB-231 cells were purchased from the ATCC and grown in Dulbecco modified Eagle's medium (DMEM; EuroClone, Milan, Italy; ECM0728L) supplemented with 10% Fetal Bovine Serum (FBS, ThermoFisher Scientific/Gibco, Waltham, MA, USA; 10270-106), 2 mM L-glutamine and antibiotics in a humidified incubator at 37°C with 5% CO2 and atmospheric O2 concentration. Cell lines were authenticated and tested to be mycoplasma-free.
U2OS, HCT116, and MDA-MB-231 cells were seeded in 24-well plates at a density of 1 × 10^4, 20 × 10^3 and 12 × 10^3 for each well, respectively. After 24 h, cells were treated with the indicated peptides and incubated at 37°C for additional 72 h. Upon treatment completion, cell medium was removed, the wells were washed twice in phosphate-buffered saline (PBS) and fixed with 4% formaldehyde for 15 min at room temperature (RT). After washing, 500 μl of crystal violet staining solution (Sigma-Aldrich, St. Louis, MO, USA) was added to each well and incubated for 30 min at RT. Finally, the plates were rinsed twice with water, air-dried and cell pellets were dissolved in 400 μl of a 10% aqueous solution of acetic acid. In total, 200 μl of each sample was transferred to a 96-well plate, and the optical density was measured at 570 nm (OD570) with an ELISA reader (Thermo Scientific, Waltham, MA, USA). The average absorbance in each condition was used to calculate the viability expressed as a percentage of treated vs untreated conditions (CTR).

HER2 = experiment: Real-time RT-PCR of HER2 expression; format: cell-based; settings: U2OS, 10 μM peptide, 8, 16 and 24 h
Description: (§1) U2OS cells were seeded on glass coverslips in a 6-well plate at a density of 2 × 10^5 cells/well and treated with the peptides for 8, 16, and 24 h. Total RNA was isolated from the cell lines using WizPrep™ Total RNA Mini Kit (Cell). The quality and the quantity of RNA extraction was assessed by evaluating the A280/A260 nm and A260/A230 nm absorbance ratio (Nanodrop 1000, Thermo Fisher Scientific). The mRNA Reverse Transcription (RT) was performed using the QuantiTect Reverse Transcription Kit (Qiagen). mRNA expression was evaluated by SYBR Green (Applied Biosystems) in the QuantStudio 6 Flex Detection system (ThermoFisher Scientific). Primer sequences are indicated in Supplementary Table S2.

BCL-2 = experiment: Real-time RT-PCR of BCL-2 expression; format: cell-based; settings: U2OS, 10 μM peptide, 8, 16 and 24 h
Description: as §1

G4 = experiment: CD experiments, G4-stabilizing properties of R7W conjugate versus parent; format: binding; settings: CD experiments (Supplementary Figure S39)
Text: The buffer baseline was subtracted from each spectrum.

FITC-MybA400 = target: T1, FITC-MybA400 (UniProt P11938 397-415, G400A); experiment: MST; 20 mM K+; 5 mM KH2PO4/K2HPO4 pH 7.0, 20 mM KCl (LiCl for c-MYC stock), 25 C; MST with 0.1% Tween and 5% DMSO, 20 nM FITC-peptide; settings: tags: N-terminal FITC; parallel G4
T1 chain: {FITC-AEEA}-NHTANSIRHRFRVYLSKRL-NH2

MybA400 = target: T2, MybA400 (UniProt P11938 397-415, G400A); experiment: isothermal titration calorimetry; 5 mM KH2PO4/K2HPO4, 20 mM KCl (c-MYC stock annealed in LiCl), pH 7.0; MST 25 C with 0.1% Tween, 5% DMSO, 20 nM labelled peptide, DNA titrated (stocks from 10 or 20 uM, mixed 1:1); ITC 25 C; settings: tags: N-acetyl; C-terminal NH2; chain copies: 2; parallel G4
T2 chain: NHTANSIRHRFRVYLSKRL

Myb397-415 = target: T3, Myb397-415 (UniProt P11938 397-415); experiment: as above; settings: tags: N-acetyl; C-terminal NH2; chain copies: 2; parallel G4
T3 chain: NHTGNSIRHRFRVYLSKRL

MybA412 = target: T4, MybA412 (Saccharomyces cerevisiae, UniProt P11938 397-415, S412A); experiment: as above; settings: tags: N-acetyl; C-terminal NH2; chain copies: 2; parallel G4
T4 chain: NHTGNSIRHRFRVYLAKRL

FITC-Myb397-415 = target: T5, FITC-Myb397-415 (UniProt P11938 397-415); experiment: microscale thermophoresis; 5 mM KH2PO4/K2HPO4, 20 mM KCl (c-MYC stock annealed in LiCl), pH 7.0; MST 25 C with 0.1% Tween, 5% DMSO, 20 nM labelled peptide, DNA titrated (stocks from 10 or 20 uM, mixed 1:1); ITC 25 C; settings: tags: N-terminal FITC-O2Oc; C-terminal NH2; parallel G4
T5 chain: {FITC-AEEA}-NHTGNSIRHRFRVYLSKRL-NH2

**Q.** Which “Accumulation of phosphorylated histone H2AX (γH2AX)” value (γH2AX in U2OS cells) does the source give for “RRRRRRRW-GG-NHTANSIRHRFRVYLSKRL [R7W-Myb^A400, Myb^A400 N-terminally conjugated to the cell-penetrating peptide R7W via a glycine–glycine spacer]” here?
**A.** most pronounced response

**Q.** And the “Inhibition of tumour cell growth, R7W-conjugated peptides” value (U2OS cells)?
**A.** essentially to the same extent as R7W-Myb^397–415

**Q.** What does the source list for “RRRRRRRW-GG-NHTGNSIRHRFRVYLSKRL [R7W-Myb^397–415]”?
**A.** HER2 expression level (HER2): transiently modulated; BCL-2 expression level (BCL-2): transiently modulated; IC50 (U2OS cells; read-out: IC50 (concentration of drug capable of killing 50% of cells)): ~5000 nM; G4-stabilizing properties compared with Myb^397–415 (G4): no significant differences

**Q.** CGGGCGGGCGCTAGGGAGGGT (structured_DNA) [c-KIT2] was tested. Which Kd (FITC-MybA400) did it give?
**A.** ~170 nM

**Q.** What about the Kd (MybA400) of the same molecule?
**A.** 137 ± 24 nM

**Q.** And the Kd (Myb397-415)?
**A.** 200 ± 12 nM

**Q.** And the Kd (MybA412)?
**A.** 187 ± 28 nM

**Q.** What about the Kd (FITC-Myb397-415) of the same molecule?
**A.** 130 ± 15 nM
